Patent publication US8178552B2, “7-Azaindole derivatives and their use in the inhibition of c-Jun N-terminal kinase” (Eisai R&D Management Co., Ltd., priority 2008, dated 2012)

Key:
panel of 100 kinases = assay: Selectivity against a panel of 100 kinases (Upstate/Millipore), expressed as Gini coefficient; type: biochemical; conditions: calculated from remaining activity at 1 micromolar compound, 10 micromolar ATP, 0 = non-selective, 1 = perfect selectivity
Description: Inhibitory potency of compounds (I) at a concentration of 1 micromolar and with ATP concentration of 10 micromolar was determined at Upstate/Millipore against a panel of 100 kinases representing all major families within the kinome. The results are presented in Table 3 and are expressed as percentage of remaining activity.
For comparison purposes Table 4 contains the relevant inhibitory data for reference compounds A-K containing a (hetero)aromatic ring at C(5) of the 7-azaindole system.
Selectivity of compounds according to the present invention and reference compounds expressed as Gini coefficient (J. Med. Chem. 2007, 50, 5773-5779) is shown in Table 5. The individual Gini coefficients have been calculated using the data in Tables 3 and 4. Value Gini=0 corresponds to a totally non-selective compound; value Gini=1 reflects perfect selectivity (inhibition of a single target only)

c-Jun phosphorylation = assay: LPS-induced c-Jun phosphorylation in spleen of mice (HTRF); type: in vivo, male C57/B16 mice; conditions: Mus musculus, po; 20 mg/kg p.o. 30 min before LPS 10 mg/kg i.p.; 1 hour after LPS; versus vehicle-treated animals; read-out: Percentage reduction in the level of P-c-Jun in spleen
Description: (§1) The studies were carried out in male C57/B16 mice. Compounds (20 mg/kg; p.o.) were administered 30 minutes before injection of lipopolysaccharide (LPS). LPS was administered intraperitoneally at a dose of 10 mg/kg. Animals were sacrificed 1 hour following LPS injection. Blood was collected into heparinized tubes for measurement of plasma TNFα levels and spleens were collected for the measurement of c-Jun phosphorylation. Plasma TNFα was measured using an ELISA kit purchased from R&D systems. Spleens were homogenised, extracted in high salt (250 mM NaCl) lysis buffer with phosphatase inhibitors and c-Jun phosphorylation was measured using HTRF. The suppressive effect of compounds was calculated as the percentage reduction of the TNFα level in plasma and P-c-Jun level in spleen as compared with the vehicle-treated animals.

JNK3 = JNK3 (Homo sapiens, UniProt P53779); assay: JNK3 SPA assay; type: biochemical; conditions: 3.33 μM ATP, GST-c-Jun substrate; read-out: IC50 against JNK3
JNK3, sequence (P53779 whole entry, species assumed): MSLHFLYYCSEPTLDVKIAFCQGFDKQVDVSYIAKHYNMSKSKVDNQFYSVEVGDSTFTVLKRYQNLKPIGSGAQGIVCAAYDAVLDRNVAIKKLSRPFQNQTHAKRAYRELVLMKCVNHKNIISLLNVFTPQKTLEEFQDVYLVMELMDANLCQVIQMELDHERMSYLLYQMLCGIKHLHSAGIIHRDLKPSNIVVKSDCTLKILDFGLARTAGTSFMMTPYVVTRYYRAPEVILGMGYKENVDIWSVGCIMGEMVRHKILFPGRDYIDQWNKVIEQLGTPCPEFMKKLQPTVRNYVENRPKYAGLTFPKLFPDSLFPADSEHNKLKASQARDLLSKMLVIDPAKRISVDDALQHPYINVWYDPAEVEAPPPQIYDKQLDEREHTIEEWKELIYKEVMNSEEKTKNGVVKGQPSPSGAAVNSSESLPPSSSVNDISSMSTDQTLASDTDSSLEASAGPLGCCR
Summary of the method: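 Radiometric SPA using GST-c-Jun with [γ-33P]ATP in 25 mM HEPES pH 7.5 and 10 mM Mg acetate; the substrate solution held 3.33 µM ATP (JNK2/3) or 2 µM ATP (JNK1). Reactions ran 30 min at room temperature and were stopped with glutathione SPA beads plus 40 mM ATP. IC50 is the concentration halving c-Jun phosphorylation versus control.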

MOG (35-55)-induced EAE = assay: MOG (35-55)-induced experimental autoimmune encephalomyelitis (EAE) in mice; type: in vivo, C57/B16J mice; conditions: 20 mg/kg, p.o., once daily, from appearance of symptoms
TNFα = assay: LPS-induced TNFα suppression in mice (plasma TNFα, ELISA); type: in vivo, male C57/B16 mice; conditions: Mus musculus, po; 20 mg/kg p.o. 30 min before LPS 10 mg/kg i.p.; 1 hour after LPS; versus vehicle-treated animals; read-out: Percentage reduction in the level of TNFα in plasma
Description: as §1

JNK2 = JNK2 (Homo sapiens, UniProt P45984); assay: JNK2 SPA assay; type: biochemical; conditions: 3.33 μM ATP, GST-c-Jun substrate
JNK2, sequence (P45984 whole entry, species assumed): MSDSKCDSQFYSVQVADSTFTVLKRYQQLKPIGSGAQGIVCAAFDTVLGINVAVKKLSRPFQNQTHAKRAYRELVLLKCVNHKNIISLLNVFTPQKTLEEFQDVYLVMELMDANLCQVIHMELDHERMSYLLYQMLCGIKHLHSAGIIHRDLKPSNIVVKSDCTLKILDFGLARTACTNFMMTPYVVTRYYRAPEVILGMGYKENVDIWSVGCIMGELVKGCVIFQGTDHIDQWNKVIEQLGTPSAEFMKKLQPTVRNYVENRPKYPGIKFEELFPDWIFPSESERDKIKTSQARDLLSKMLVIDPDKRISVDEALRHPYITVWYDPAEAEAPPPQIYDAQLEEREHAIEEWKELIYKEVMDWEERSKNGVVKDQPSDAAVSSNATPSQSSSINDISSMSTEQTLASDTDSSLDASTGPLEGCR
Description: (§2) JNK1, JNK2, JNK3—SPA Assay
(§3) JNK1, JNK2, JNK3—SPA Assay • 1. Compound is dissolved in DMSO to a convenient concentration and this is diluted in 10% DMSO to a five times concentrate of the desired starting concentration (frequently 1:100). • 2. 10 μl of 500 mM EDTA is added to alternative wells of the Opti-plate row, which will receive kinase reaction plus DMSO. This creates the negative control. • 3. For the JNK2 and JNK3 assay, compounds are prepared in six 2-fold dilutions with water and each concentration is tested in duplicate. For the JNK1 assay compounds are prepared in four 5-fold dilutions with water which are tested in triplicate. Controls are treated identically. • 4. 20 μl per well of each compound concentration is transferred to an Opti-plate, in duplicate. • 5. 30 μl (JNK2/3 SPA) or 50 μl (JNK1 SPA) of substrate solution (25 mM HEPES pH 7.5, 10 mM magnesium acetate with 3.33 μM ATP (JNK2/3) or 2 μM ATP (JNK1), approximately 7.5 kBq [γ-^33P] ATP, GST-c-Jun, in water) is added to each well. • 6. 50 μl (JNK2/3 SPA) or 30 μl (JNK1 SPA) of kinase solution (JNK in 25 mM HEPES pH 7.5, 10 mM Mg Acetate) is added to each well.
(§4) • 7. The plate is incubated for 30 minutes at room temperature. • 8. […] Plates are sealed and incubated for 30 minutes at room temperature, centrifuged for 10 minutes at 2500 g and counted. • 10. […]

JNK1 = JNK1 (Homo sapiens, UniProt P45983); assay: JNK1 SPA assay; type: biochemical; conditions: 2 μM ATP, GST-c-Jun substrate
JNK1, sequence (P45983 whole entry, species assumed): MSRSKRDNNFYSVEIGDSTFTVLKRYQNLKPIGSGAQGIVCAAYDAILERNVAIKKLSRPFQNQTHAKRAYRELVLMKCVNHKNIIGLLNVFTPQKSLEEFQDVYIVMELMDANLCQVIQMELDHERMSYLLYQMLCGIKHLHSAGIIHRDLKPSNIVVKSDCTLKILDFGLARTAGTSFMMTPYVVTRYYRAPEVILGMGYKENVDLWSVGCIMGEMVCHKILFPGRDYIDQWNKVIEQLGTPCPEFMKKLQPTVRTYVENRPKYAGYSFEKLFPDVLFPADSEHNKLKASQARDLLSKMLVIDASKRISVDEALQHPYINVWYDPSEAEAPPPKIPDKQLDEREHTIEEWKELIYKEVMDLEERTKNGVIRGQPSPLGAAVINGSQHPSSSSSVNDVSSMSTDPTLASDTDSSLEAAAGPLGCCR
Description: as §2, §3, §4

## CN(C)c1ccc(-c2cnc3[nH]cc(-c4cn[nH]c4)c3c2)cc1 [A]
Panel of 100 kinases
  Gini coefficient, reference compounds, aromatic C(5) group: 0.3368

## Cn1cc(-c2c[nH]c3ncc([C@H]4CC[C@H](N5CCOCC5)CC4)cc23)cn1 [Compound I-6, 4-((1r,4r)-4-(3-(1-methyl-1H-pyrazol-4-yl)-1H-pyrrolo[2,3-b]pyridin-5-yl)cyclohexyl)morpholine]
c-Jun phosphorylation
  inhibition in vivo at 20 mg/kg: 41%
JNK3
  IC50: 80 nM
MOG (35-55)-induced EAE; FIG. 10
  total white matter area in the lumbar spinal cord: preservation
MOG (35-55)-induced EAE; FIG. 11
  neuronal numbers in the ventral horn of the lumbar spinal cords: preservation
MOG (35-55)-induced EAE; FIG. 12
  demyelination in the lumbar spinal cord: decrease
TNFα
  inhibition in vivo at 20 mg/kg: 82%

## Cn1cc(-c2c[nH]c3ncc(C4C5CC6CC(C5)CC4C6)cc23)cn1 (stereo not drawn) [Compound I-154, 3-(1-Methyl-1H-pyrazol-4-yl)-5-tricyclo[3.3.1.1˜3,7˜]dec-2-yl-1H-pyrrolo[2,3-b]pyridine]
c-Jun phosphorylation
  inhibition in vivo at 20 mg/kg: 33%
JNK3
  IC50: 62 nM
TNFα
  inhibition in vivo at 20 mg/kg: 60%

## CN1CCC(c2csc(-c3cnc4[nH]cc(-c5cnn(C)c5)c4c3)n2)CC1 [E]
Panel of 100 kinases
  Gini coefficient, reference compounds, aromatic C(5) group: 0.3757

## CN(C)C(=O)c1nc(-c2c[nH]c3ncc(-c4ccccc4)cc23)cs1 [G]
Panel of 100 kinases
  Gini coefficient, reference compounds, aromatic C(5) group: 0.3501

## CN1CCN(C(=O)c2nc(-c3c[nH]c4ncc(-c5ccc(N6CCN(C)CC6)cc5)cc34)cs2)CC1 [J]
Panel of 100 kinases
  Gini coefficient, reference compounds, aromatic C(5) group: 0.3286

## CC1CCC(c2cnc3[nH]cc(-c4cnn(C)c4)c3c2)CC1 (stereo not drawn) [compound 3]
JNK2
  IC50: 501 nM
JNK1
  IC50: 178 nM

## CN1CCN([C@H]2CC[C@H](c3cnc4[nH]cc(-c5cnn(C)c5)c4c3)CC2)CC1 [compound 25]
JNK2
  IC50: 245 nM
JNK1
  IC50: 191 nM
Panel of 100 kinases
  Gini coefficient, compounds (I), non-aromatic C(5) group: 0.6769
